Marks after values point to notes of the source that are not given here.
System: C2C12 myotubes
Test: Protein synthesis rate (FSR) in C2C12 myotubes after pretreatment with 1,25(OH)2 Vitamin D3, with or without leucine and insulin
Type: cell-based, mouse
Settings: for increase in muscle protein synthesis rate: C2C12 myotubes treated only with vitamin D3, with leucine alone, or with both; for change (%) in protein synthesis rate vs no pretreatment with vitamin D3: 72 h pretreatment
Protocol: An experimental in vitro study is performed to evaluate the synergistic or additional action of leucine and vitamin D on intracellular pathways regulating protein synthesis in muscle cells.
C2C12 mouse myoblasts are obtained from the American Type Culture Source Collection (no. CRL-1772). Myoblasts are cultured at 37° C. in an atmosphere of 5% CO2 in grown medium consisting of Dulbecco's modified Eagle's medium (DMEM) supplemented with 10% foetal calf serum and antibiotics. Myotube C2C12 differentiation is induced by withdrawing foetal calf serum from confluent cells and adding 10 μg/ml insulin, 5 μg/ml transferrin and 2% horse serum.
Confluent C2C12 myotubes are treated with vehicles alone or with different doses of 1,25(OH)2 D3. Subsequently, the cells are deprived of horse serum by incubation in a serum-free medium for the two remaining hours. During this deprivation period, different amounts of leucine and insulin are added to the medium before harvesting cells.
Medium with or without leucine supplementation are used to assess the synergistic or additional action of leucine and vitamin D on intracellular pathways regulating protein synthesis (Akt, mTOR) and/or on direct measure of protein synthesis.
Protein synthesis rate (FSR) in C2C12 myotubes after 72 h pretreatments with 0, 1 or 10 nm of 1,25(OH)2 Vitamin D3 is depicted in FIG. 1.
FIG. 1: Protein synthesis rate (FSR) in C2C12 myotubes after 72 h pretreatments with 0, 1 or 10 nm of 1,25(OH)2 Vitamin D3.

Structure (SMILES)	increase in muscle protein synthesis rate [%]	effect on muscle protein synthesis (in words) (C2C12 myotubes, vitamin D3 dose 1 or 10 nM)	change (%) in protein synthesis rate vs no pretreatment with vitamin D3 ([Vitamin D] = 1 nM, Ins + leu, vs [Vit D] = 0 Ins + leu)	change (%) in protein synthesis rate vs no pretreatment with vitamin D3 ([Vitamin D] = 1 nM, No stim, vs [Vit D] = 0 No stim)	change (%) in protein synthesis rate vs no pretreatment with vitamin D3 ([Vitamin D] = 10 nM, Ins + leu, vs [Vit D] = 0 Ins + leu)	change (%) in protein synthesis rate vs no pretreatment with vitamin D3 ([Vitamin D] = 10 nM, No stim, vs [Vit D] = 0 No stim)
C=C1/C(=C\C=C2/CCC[C@]3(C)[C@@H]([C@H](C)CCCC(C)(C)O)CC[C@@H]23)C[C@@H](O)C[C@@H]1O [Vitamin D, 1,25-dihydroxycholecalciferol]	14.3	can stimulate muscle protein synthesis independently of leucine presence	9.8* %	14.0* %	14.3* %	14.3* %
CC(C)C[C@H](N)C(=O)O [leucine, L-leucine]	10.7	–	–	–	–	–

From patent US10045999B2, “Nutritional composition for the stimulation of muscle protein synthesis” (N. V. Nutricia, priority 2010, dated 2018)
